How the values were obtained:
[1] = system: rat liver microsome; assay: ADP/Fe^3+ induced lipid peroxidation reaction using rat liver microsome (anti-oxidant action); assay type: biochemical; conditions: for inhibition action on lipid peroxidation compared with BHT: versus BHT, positive control (FIG. 1)
Protocol: Test Example 1 [Anti-oxidant-action (lipid peroxide production inhibiting action)]
Compounds II-VII represented by the following formulae [drawing 3] have shown concentration dependent inhibition action on ADP/Fe^3+ induced lipid peroxidation reaction using rat liver microsome.
Test method (ADP/Fe^3+ induced lipid peroxidation reaction)
The method of Kiso et al. was employed. That means, 100 μl of a rat liver microsome suspension (20 mg of protein/ml), 100 μl of a 2 mM NADPH, 100 μl of a 10 mM ADP, and 100 μl of a specimen solution whose concentration was controlled with a 10% N,N-dimethylformamide (DMF) aqueous solution were added to 500 μl of a trihydroxymethylaminomethane (Tris)-HCl buffer solution (167 mM KCl, 74.4 mM Tris, pH 7.4) and heated at 37° C. for 5 minutes. Then 100 μl of 100 μM FeCl3 was added thereto and heated at 37° C. for 20 minutes
To a control was added 100 μl of a 10% DMF aqueous solution instead of the specimen solution. To a blank, 100 μl of a 10% DMF aqueous solution was added instead of the specimen solution, and 300 μl of water was added instead of 100 μl of the NADPH, 100 μl of the FeCl3, and 100 μl of the ADP. The reaction was stopped by cooling with ice, and the amount of the lipid peroxide was calculated as an amount of malondialdehyde according to the method of Ohkawa et al.
That means, 200 μl of a 8.1% sodium dodecyl sulfate (SDS) aqueous solution, 1.5 ml of an acetic acid buffer solution (20% AcOH containing 0.27M HCl was controlled with 10M NaOH to have a pH of 3.5), and 1.5 ml of a 0.8% 2-thiobarbituric acid aqueous solution were added to 1 ml of the reaction mixture and heated in a boiling water bath for 20 minutes Following heating, the reaction was stopped with cooling with ice and 4 ml of n-BuOH-pyridine mixed solution (15:1) was added thereto and mixed vigorously. Then the mixture was subjected to centrifugation at 800×g for 10 minutes and the absorbancy of the supernatant liquid was measured at 532 nm.

[2] = system: rat cutaneous anaphylactic reaction (PCA reaction); assay: Antiallergic action in an orally administered rat, 48 hours homologous PCA reaction; assay type: in vivo; conditions: Wistar male rat, oral, 2 hours before antigen; versus tranilast (FIG. 2)
Protocol: Test Example 4--Antiallergic action in an orally administered rat (PCA method)
The antiallergic actions of Compound II-Compound VII were evaluated using rat cutaneous anaphylactic reaction (PCA reaction) employing tranilast, which is an oral antiallergic agent, as a positive control compound.
Test method (Antiallergic action by PCA reaction)
The test was carried out according to the method of Koda et al, {Int. Arch. Allergy Appl. Immunol. 87, 254(1988)}. The dorsum of a Wistar-strain male rat having a body weight of about 200 g was shaved and 0.1 ml of an antiserum showing 48 hours homologous PCA strength of 1:128-1:256 diluted with physiological saline was injected into the dorsum intracutaneously. […] After 30 minutes, the rat was brought to death by exsanguination and the pigment freckle generated on the back skin was cut out and the amount of the transuded pigment was determined. That means, the cut out skin was put in a test tube, 1 ml of 1N KOH was added and allowed to stand overnight at 37° C. to elute the pigment, and 9 ml of a mixture comprising acetone and 0.6N phosphoric acid (mixed at 13:5) was added thereto and shaken, and the insoluble substances were removed by filtration and the absorbency of the filtrate was measured at 620 nm and the amount of the pigment was determined. […]

[3] = biological target: T1, 5-lipoxygenase (Rattus norvegicus, UniProt P12527); assay: 5-lipoxygenase inhibiting action (leucotriene production inhibiting action), RBL-1 cell homogenate; assay type: biochemical; conditions: arachidonic acid, 37° C., 5-HETE by HPLC
T1 construct: subjected to supersonic treatment and the cells were disrupted; endogenous in cells; host or cells: RBL-1 cells (homogenate)
T1 sequence (P12527 1-673): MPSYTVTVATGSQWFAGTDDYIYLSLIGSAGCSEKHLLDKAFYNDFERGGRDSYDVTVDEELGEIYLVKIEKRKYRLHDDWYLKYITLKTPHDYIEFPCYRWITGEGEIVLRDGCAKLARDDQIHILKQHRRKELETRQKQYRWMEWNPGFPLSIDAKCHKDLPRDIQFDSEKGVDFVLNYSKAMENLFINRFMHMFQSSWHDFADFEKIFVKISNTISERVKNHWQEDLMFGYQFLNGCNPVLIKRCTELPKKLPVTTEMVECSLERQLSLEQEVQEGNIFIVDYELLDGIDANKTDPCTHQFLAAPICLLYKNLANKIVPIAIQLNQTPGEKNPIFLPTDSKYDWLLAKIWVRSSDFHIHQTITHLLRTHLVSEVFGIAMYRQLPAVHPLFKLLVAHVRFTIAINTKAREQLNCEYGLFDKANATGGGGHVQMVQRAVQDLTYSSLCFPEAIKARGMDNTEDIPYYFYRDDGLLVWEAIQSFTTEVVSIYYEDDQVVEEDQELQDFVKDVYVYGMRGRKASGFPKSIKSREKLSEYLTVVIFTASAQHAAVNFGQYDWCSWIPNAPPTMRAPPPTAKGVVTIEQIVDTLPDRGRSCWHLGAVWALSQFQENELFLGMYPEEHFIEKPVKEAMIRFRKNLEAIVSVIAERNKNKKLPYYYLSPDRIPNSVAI
Protocol: Test method (5-lipoxygenase inhibition action)
That means, a RBL-1 cell suspension which was adjusted with a 50 mM phosphate buffer such that the number of cells became 1×10^7 cells/ml, was subjected to supersonic treatment and the cells were disrupted To 500 μl of the cell homogenate solution was added 10 μl of a specimen solution whose concentration was adjusted to different concentrations using a 1% DMSO, 10 μl of 100 mM CaCl2 and 10 μl of a 10 mg/ml arachidonic acid solution in MeOH and heated to 37° C. for 3 minutes. To a control was added 10 μl of a 1% DMSO instead of the specimen. To a blank, 10 μl of a 1% DMSO was added instead of the specimen, and 500 μl of a 50 mM phosphate buffer was added instead of RBL-1 cell suspension. Then 500 μl of MeOH was added thereto and the mixture was cooled with ice to stop the reaction, followed by mixing and centrifugation at 2000×g for 15 minutes Then the amount of 5-HETE in 10 μl of the supernatant liquid was measured using HPLC under the following conditions.
mobile phase; acetonitrile: 0.1% acetic acid=85:15
detection wave length; 235 nm
The inhibition ratio to 5-lipoxygenase activity was calculated according to the following formula.

[4] = biological target: T2, guinea pig bowel (Cavia porcellus, UniProt P31389); assay: Antihistaminic action with guinea pig bowel by Magnus' method; conditions: guinea pig ileum, histamine dose reaction curve, 37° C.; read-out: pA2 (index of the antihistaminic action) (converted)
T2 construct: the ileum was excised to a length of about 2 cm; from tissue; host or cells: guinea pig ileum
T2 sequence (P31389 whole entry): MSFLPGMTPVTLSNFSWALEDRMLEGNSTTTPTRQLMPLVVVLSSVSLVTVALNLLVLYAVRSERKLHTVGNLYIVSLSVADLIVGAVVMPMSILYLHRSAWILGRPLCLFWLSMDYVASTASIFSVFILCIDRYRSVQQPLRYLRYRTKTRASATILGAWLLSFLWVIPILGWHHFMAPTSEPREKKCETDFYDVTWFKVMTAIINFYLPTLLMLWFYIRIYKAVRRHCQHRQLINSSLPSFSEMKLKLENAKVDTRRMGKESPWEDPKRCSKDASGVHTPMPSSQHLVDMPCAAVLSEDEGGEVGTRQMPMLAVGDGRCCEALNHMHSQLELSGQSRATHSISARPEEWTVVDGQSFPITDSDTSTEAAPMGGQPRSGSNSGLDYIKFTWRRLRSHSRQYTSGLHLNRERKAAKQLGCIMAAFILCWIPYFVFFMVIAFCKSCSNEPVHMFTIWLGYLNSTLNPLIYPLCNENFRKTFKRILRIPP
Protocol: Test Example 3--Antihistaminic action
The antihistaminic action of the Compound V was tested with a guinea pig bowel by Magnus' method using diphenhydramine hydrochloride as a positive control.
A guinea pig which had been fasted overnight was struck to death and the ileum was excised to a length of about 2 cm and one end was suspended in an isotonic transducer and the other end was secured onto a fixed rod. The temperature of the temperature controlled bath was kept at 37° C. and the ileum was allowed to stand for about 30 minutes while a mixed gas comprising 95% of O2 and 5% of CO2 was introduced into 10 ml of Tyrode solution, and histamine of different concentrations was injected for training, then a dose reaction curve was obtained by administering histamine accumulatively in order of increasing concentration. Then after washing, a dose reaction curve in relation to the histamine was similarly obtained under administration of the specimen and pA2 was calculated.

| SMILES | inhibition action on lipid peroxidation compared with BHT [1] | antiallergic activity compared with the positive control compound (tranilast) [2] | IC50 [3] | Kb [4] | anti-oxidant action, ranking among the compounds of Test Example 1 ([1]; result in words) |
| --- | --- | --- | --- | --- | --- |
| Cc1cc(OCCCN2CCN(C(c3ccccc3)c3ccccc3)CC2)c(C)c(C)c1O [Compound III] | higher inhibition actions than BHT |  |  |  |  |
| Cc1cc(OCCN2CCN(C(c3ccccc3)c3ccccc3)CC2)c(C)c(C)c1O [Compound II] | higher inhibition actions than BHT |  |  |  |  |
| Cc1cc(OCCCCN2CCN(C(c3ccccc3)c3ccccc3)CC2)c(C)c(C)c1O [Compound IV] | higher inhibition actions than BHT | higher activity than that of the positive control compound |  |  |  |
| Cc1cc(OCCCCCCN2CCN(C(c3ccccc3)c3ccccc3)CC2)c(C)c(C)c1O [Compound V] | higher inhibition actions than BHT | higher activity than that of the positive control compound | 6.2 µM | 0.126 µM | highest anti-oxidant action |
